The values below come from PubChem BioAssay (NCI).

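In this assay, cells in 96-well plates receive the compound at five concentrations for 48 hours. Endpoints are linearly interpolated between the surrounding concentrations. TGI is the concentration that stops growth completely.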

Holding throughout (experiment): inhibition of tumour cell growth, NCI panel, 48 h
The test system of assay [1] is DU-145 prostate.
Assay [2] relates to SF-268 CNS.
The subject of assay [3] is MOLT-4 leukemia.
For assay [4], the system named is SNB-75 CNS.
Assay [5] deals with SF-295 CNS.
For assay [6], the system named is UO-31 renal.
The subject of assay [7] is PC-3 prostate.
Assay [8] deals with MALME-3M melanoma.
The subject of assay [9] is MCF7 breast.
Assay [10] concerns M14 melanoma.
In assay [11] the test system is OVCAR-4 ovarian.
In assay [12] the test system is SK-OV-3 ovarian.
Assay [13] deals with HCC-2998 colon.
Assay [14] has as its system SK-MEL-5 melanoma.
The test system of assay [15] is RXF 393 renal.
The test system of assay [16] is OVCAR-8 ovarian.
For assay [17], the system named is K-562 leukemia.
The test system of assay [18] is NCI-H226 lung.
Assay [19] has as its system CCRF-CEM leukemia.
Assay [20] deals with OVCAR-5 ovarian.

On to `O/N=C1/CCCc2nonc21`, for which the TGI in assay [1], in assay [2], in assay [3], in assay [4], in assay [5] and in assay [6] was over 100 µM throughout. Besides, the TGI in [7], in assay [8], in assay [9], in [10], in assay [11] and in assay [12] was over 100 µM throughout. In addition, the TGI in assay [13], in [14], in [15], in [16], in assay [17] and in assay [18] was over 100 µM in each case. Moreover, the TGI in assay [19] and in assay [20] was over 100 µM each time.

In the case of `c1cncc(CSc2ncnc3nc[nH]c23)c1`, the TGI in assay [1], in assay [2], in [3], in assay [4], in assay [5] and in assay [6] was over 100 µM throughout. The TGI in assay [7], in [8], in assay [9], in [10], in [11] and in assay [12] was over 100 µM in each case. Also, the TGI in [13], in assay [14], in assay [15], in assay [16], in [17] and in [18] was over 100 µM in each case. Further, the TGI in assay [19] and in [20] was over 100 µM in each case.

`O=C(/C=C(\Nc1ccccc1O)c1ccc(Br)cc1)C(Cl)(Cl)Cl`: the TGI in assay [1] was 13.8 µM; in assay [2] it was 25.8 µM; in [3] it was 33.7 µM; in [4], 26.8 µM; in assay [5], 20 µM; in assay [6] it was 10.8 µM. Further, the TGI came to 11.9 µM in [7]; 29.2 µM in assay [8]; 20 µM in assay [9]; 29.2 µM in [10]; 19.2 µM in assay [11]; 16 µM in assay [12]. Further, the TGI is 5.88 µM in [13]; 27.7 µM in assay [14]; 19.2 µM in assay [15]; 27 µM in assay [16]; 32.5 µM in [17]; 26.5 µM in assay [18]. Also, the TGI in assay [19] is 36.7 µM; in assay [20] it was 24.5 µM.

For `c1n[nH]cc1C12C3C4C5C3C1C5C42` (stereo not given), the TGI in assay [1], in [2], in [3], in assay [4], in assay [5] and in assay [6] was over 100 µM in each case. In addition, the TGI in assay [7], in assay [8], in [9], in assay [10], in assay [11] and in assay [12] was over 100 µM in each case. For the same compound, the TGI in assay [13], in assay [14], in [15], in assay [16], in assay [17] and in assay [18] was over 100 µM each time. In addition, the TGI in assay [19] and in assay [20] was over 100 µM throughout.

Turning to `CSc1nc2c3ccccc3ccn2c1C(=O)N/N=C/c1ccccc1`, the TGI in assay [1] is over 100 µM; in assay [2], over 72.1 µM; in assay [3], over 100 µM; in assay [4], over 71.2 µM; in assay [5], over 72.4 µM; in [6], 42.7 µM. The TGI in [7] is over 100 µM; in assay [8], over 95.1 µM; in [9], over 100 µM; in assay [10], over 100 µM; in assay [11] it was 39.1 µM; in assay [12] it was 43.7 µM. Moreover, the TGI in assay [13] was over 100 µM; in [14], over 100 µM; in assay [15], over 79.4 µM; in assay [16], 44.7 µM; in assay [17], over 100 µM; in assay [18], over 100 µM. Besides, the TGI in [19] and in [20] was over 100 µM in each case.

Take `Cc1nc(N(C(C)C)C(C)C)c(C(C)C)o1`: the TGI in assay [1], in assay [2], in assay [3], in assay [4], in assay [5] and in assay [6] was over 100 µM in each case. In addition, the TGI in [7], in assay [8], in assay [9], in assay [10], in assay [11] and in [12] was over 100 µM in each case. Moreover, the TGI in [13], in [14], in assay [15], in [16], in assay [17] and in assay [18] was over 100 µM throughout. In addition, the TGI in [19] and in assay [20] was over 100 µM each time.

`CCCC(=O)OCOC(=O)N(C)N=Nc1ccc(C(=O)OCC)cc1`: the TGI in assay [1] is 64.1 µM; in [2] it was over 100 µM; in [3], over 100 µM; in [4], over 100 µM; in assay [5], 53.8 µM; in assay [6], over 100 µM. Moreover, the TGI is 97.1 µM in assay [7]; 43.3 µM in assay [8]; 45.5 µM in assay [9]; over 100 µM in [10]; over 100 µM in assay [11]; over 100 µM in [12]. The TGI in assay [13] is 45.9 µM; in assay [14] it was over 100 µM; in assay [15], 33.5 µM; in assay [16], 84.7 µM; in assay [17] it was over 100 µM; in assay [18], over 100 µM. Moreover, the TGI in assay [19] and in assay [20] was over 100 µM throughout.
